# Values quoted from earlier work, collected in US4339582A (priority 1981, dated 1982).
# Conditions: literature, J. Med. Chem. 18, 1126-30 (1975)
structure (smiles),measurement,value
c1ccc(C2CCC3CCCCN3C2)cc1 (stereo not shown),reported activity,antidepressant activity
